Assay results as given in patent US20240245677A1, “SELECTED COMPOUNDS FOR TARGETED DEGRADATION OF BRD9” (C4 THERAPEUTICS, INC., priority 2021, published 2024).
One block for each compound: values may come before it.

Experiments:
[1] = Competitive water activity study; format: physicochemical
Procedure: Competitive water activity experiments at 25° C. were conducted for hydrate Pattern A and anhydrate Pattern G. Pattern A, and Pattern G, were equilibrated at 25° C. in 6 different water activities with acetone/water mixtures. Obtained suspensions were stirred at 25° C. for 3 days and 7 days. Obtained suspensions were centrifuged and obtained solids were analyzed by XRPD immediately.
Competitive water activity experiments at 25° C. were conducted for hydrate Pattern A and anhydrate Pattern M. Pattern A, and Pattern M were equilibrated at 25° C. in 6 different water activities with acetone/water mixtures. Obtained suspension was stirred at 25° C. for 3 days and 7 days. Obtained suspensions were centrifuged and obtained solids were analyzed by XRPD immediately.

[2] = target: T1, GSPT1 (Homo sapiens, UniProt P15170+Q96SW2); test: GSPT1 HiBiT degradation assay in HEK293T.114 cells; format: cell-based; conditions: 6 hours
T1 construct: CRISPR-edited to endogenously express HiBiT tagged GSPT1; host or cells: HEK293T.114
Source text: This assay evaluated the off-target degradation of the cereblon neosubstrate, Eukaryotic peptide chain release factor GTP-binding subunit ERF3A (GSPT1), induced by treatment with Compound 1 as measured by luminescence using Nano-Glo HiBiT® Lytic Assay System in 293T cells CRISPR-edited to endogenously express HiBiT tagged GSPT1.
Nano-Glo® HiBiT Lytic Assay System was purchased from Promega (Catalog No. N3050, Madison, WI, USA). HEK293T cells were obtained from ATCC (Catalog No. CRL-3216, Manassas, VA, USA), and maintained in DMEM medium (Catalog No. 11995065, ThermoFischer Scientific, Waltham, MA, USA) supplemented with 10% heat inactivated FBS (Catalog No. 16000-044, Gibco, Grand Island, NY, USA) at 37° C. in an atmosphere of 5% CO2 in air. The HiBiT polypeptide tag was introduced into the N-terminus of the endogenous GSPT1 locus by CRISPR-Cas9 to produce the HEK293T.114 modified cell line. The HiBiT polypeptide allows reconstitution of NanoBiT enzyme following cell lysis and addition of the complementing LgBiT polypeptide that activates substrate to produce a luminescent signal that is directly proportional to the amount of HiBiT-tagged GSPT1.
HEK293T.114 cells were routinely sub-cultured to maintain cell density between 30-80% confluence, not to exceed 20 passages. Cells were washed with PBS, trypsinized for 5 minutes at 37° C., and resuspended in fresh growth media without phenol red. An aliquot was diluted 2× with Trypan Blue solution 0.4% (Catalog No. 15250061, ThermoFisher Scientific, Waltham, MA, USA) and cell count determined. Cell concentration was adjusted with growth media without phenol red to 2×10^5 cells/mL.
The 10 mM DMSO stock solutions of Compound 1 or CC0885 were serially diluted (half log) in DMSO to generate 11-point dose series (10000, 3160, 1000, 316, 100, 31.6, 10, 3.2, 1, 0.32, 0.1 μM) in an acoustic ready 384-well low dead volume microplate (Catalog No. LP-0200, Beckman Coulter Life Sciences, Indianapolis, IN, USA). Using an Echo 550 Acoustic Liquid Handler (Beckman Coulter Life Sciences, Indianapolis, IN, USA), 30 nL of serially diluted compound solutions were dispensed in duplicate to each 384-well black TC-treated microplate (Catalog No. 3571, Corning, Glendale, CA, USA). 30 nL DMSO was transferred to all control wells.
30 μL of HEK293T.114 cells suspended in growth media without phenol red at 2×10^5 cells/mL (6000 cells/well) were dispensed using a Multidrop Combi Reagent Dispenser (Catalog No. 5840300, ThermoFisher Scientific, Waltham, MA, USA) to each well of columns 1-23 of 384-well black TC-treated microplates containing duplicate concentration range of test compounds and DMSO controls. 30 μL of media was dispensed to column 24 as background positive control (P). Plates were spun briefly at 1000 rpm and cells were incubated at 37° C., 5% CO2 for 6 hours. Final concentration of DMSO was 0.1% for all samples.
Cellular GSPT1 protein level was determined based on quantification of HiBiT using Nano-Glo® HiBiT Lytic Assay System (Promega). 30 μL Nano-Glo Lytic Assay reagents were added to each well of columns 1-23 and luminescence was acquired on EnVision® Multilabel Reader (Catalog No. 2104-0010, Perkin Elmer Inc., Dumfries, VA, USA). Column 24 (cells without Nano-Glo reagent addition) was used as plate background or positive control (P). Cells treated in the absence of the test compound (0.1% DMSO vehicle) were the negative control (N)/
Percent response of compound-treated samples (T) were calculated by normalizing to the DMSO treated negative (N) controls on the same microtiter plate after background (i.e., positive control) signal subtraction:
Curve fit and DC50 (concentration that degrades 50% GSPT1) determination was performed by 4 parametric logistic fit analysis using software such as GraphPad Prism software (GraphPad Software, LLC, San Diego, CA, USA). […]

[3] = in vitro; conditions: plasma, 3 h, 2 µM
Procedure: Plasma protein binding (PPB) of Compound 1 was evaluated in plasma from mice, rats, dogs, cynomolgus monkeys, and humans using ultracentrifugation.
Frozen plasma from CD-1 mice, Sprague-Dawley rats, beagle dogs, cynomolgus monkeys, and humans was purchased and stored at ≤−30° C. On the day of study, plasma samples of CD-1 mice, Sprague-Dawley rats, beagle dogs, cynomolgus monkeys and humans were thawed under running cold tap water and centrifuged to remove any particulates.
For the internal standard, telmisartan, a 1 mg/mL solution was prepared by dissolving 1.4 mg of telmisartan in 1.4 mL of DMSO, and stored at 4° C.
The 10 mM stock solution of each test compound was used to prepare 400 μM intermediate stocks in methanol. Then, a 2 μM working stock of each test compound was prepared for plasma from each species (mouse, rat, dog, monkey, and human) by spiking 12 μL of the 400 μM intermediate stock for each test compound into 2400 μL of thawed and prepared plasma from a test species.
400 μL of blank plasma for each species was transferred to a 0.5 mL Beckman tube (Part No. 343776, Beckman Coulter Life Sciences, Indianapolis, IN, USA) and centrifuged for 3 hours at 627000×g at 37° C. The supernatant was removed and kept at room temperature.
To prepare for ultracentrifugation, the rotor of the centrifuge was placed into an incubator and warmed up to 37° C. before centrifugation. The vacuum switch of the OPTIMA™ MAX-TL Ultracentrifuge (Beckman Coulter Life Sciences, Indianapolis, IN, USA) was turned on and the vacuum was reduced to less than 10 microns to warm up the system. The ultracentrifuge's parameters were set to the following: Temperature—37° C.; Time—3 hours; and Speed—627000×g. For each species and each test compound, 2.4 mL of working stock was mixed and pre-incubated for 45 minutes at 37° C. Then, 60 μL was separated and precipitated with 200 μL of acetonitrile containing internal standard and labeled as (TO), and 0.4 mL (triplicates) were transferred to Beckman 2 mL tubes (Part No. 344625, Beckman Coulter Life Sciences, Indiana, IN, USA).
For each species and each test compound, the triplicate 0.4 mL sample tubes were centrifuged for 3 hours at 627000×g at 37° C. […] At 45 minutes, 60 μL was separated, precipitated with 200 μL of acetonitrile containing internal standard and labelled as (T45). After completion of 3 hours, 60 μL of incubated samples were separated, precipitated with acetonitrile containing internal standard, and labeled as (T3).
After completing the 3 hours of centrifugation, 30 μl of the top fraction of supernatant from each sample tube was removed (free fraction) and precipitated with acetonitrile containing internal standard (labeled as top sample).
After removing 30 μL of the top fraction, remaining top and bottom layer were mixed thoroughly to make a uniform mixture. From this mixture, 30 μL of bottom sample was collected and precipitated with acetonitrile containing internal standard (labelled as bottom sample).
Matrix matching was done for crashed stability samples (TO, T45 and T3 samples) by adding 30 μL of a 50:50 mixture of blank plasma supernatant and phosphate-buffered saline (PBS), and for top and bottom samples, by adding 30 μL of blank plasma (kept at room temperature).
All the stability samples and centrifuged samples were vortexed at 1000 rpm for 5 minutes and centrifuged at 4000 rpm for 10 minutes. Supernatant from each sample was separated, diluted 2-fold with water, and analyzed in LC-MS/MS.
Samples (supernatant-free fraction and total plasma) were analyzed by LCMS-MS (no standards).

[4] = Acetone/water (v:v = 60:40), a.w. 0.8
[5] = Acetone/water (v:v = 86:14), a.w. 0.6
[6] = Acetone/water (v:v = 95:5), a.w. 0.4
[7] = Acetone/water (v:v = 98:2), a.w. 0.2

T1 sequence (P15170 whole entry): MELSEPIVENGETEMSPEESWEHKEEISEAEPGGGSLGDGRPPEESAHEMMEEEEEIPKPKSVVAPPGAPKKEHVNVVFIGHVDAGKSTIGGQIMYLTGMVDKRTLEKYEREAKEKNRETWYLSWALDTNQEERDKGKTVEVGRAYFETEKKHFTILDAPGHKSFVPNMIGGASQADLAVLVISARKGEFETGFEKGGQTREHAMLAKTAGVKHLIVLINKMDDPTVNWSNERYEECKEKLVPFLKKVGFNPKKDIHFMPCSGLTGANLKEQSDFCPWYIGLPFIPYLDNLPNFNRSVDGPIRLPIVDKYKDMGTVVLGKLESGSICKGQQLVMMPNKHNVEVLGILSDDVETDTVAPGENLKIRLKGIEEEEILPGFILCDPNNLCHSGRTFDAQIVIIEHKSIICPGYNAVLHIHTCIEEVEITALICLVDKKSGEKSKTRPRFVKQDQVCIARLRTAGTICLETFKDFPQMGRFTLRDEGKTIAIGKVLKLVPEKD
T1 sequence (Q96SW2 whole entry): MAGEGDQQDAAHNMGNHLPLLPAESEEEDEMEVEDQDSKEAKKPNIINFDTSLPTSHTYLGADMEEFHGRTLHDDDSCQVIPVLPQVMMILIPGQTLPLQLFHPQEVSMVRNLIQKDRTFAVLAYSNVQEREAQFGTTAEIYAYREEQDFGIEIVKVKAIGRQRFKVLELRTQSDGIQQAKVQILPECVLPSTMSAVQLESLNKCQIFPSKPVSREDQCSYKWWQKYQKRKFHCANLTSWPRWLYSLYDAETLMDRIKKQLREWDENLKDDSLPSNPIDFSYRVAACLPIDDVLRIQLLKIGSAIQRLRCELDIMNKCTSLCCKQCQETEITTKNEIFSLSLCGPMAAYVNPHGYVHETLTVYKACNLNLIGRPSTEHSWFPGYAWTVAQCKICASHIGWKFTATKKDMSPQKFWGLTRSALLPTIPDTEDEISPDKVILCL
T1 sequence (Q16531 2-1140 partner limits assumed): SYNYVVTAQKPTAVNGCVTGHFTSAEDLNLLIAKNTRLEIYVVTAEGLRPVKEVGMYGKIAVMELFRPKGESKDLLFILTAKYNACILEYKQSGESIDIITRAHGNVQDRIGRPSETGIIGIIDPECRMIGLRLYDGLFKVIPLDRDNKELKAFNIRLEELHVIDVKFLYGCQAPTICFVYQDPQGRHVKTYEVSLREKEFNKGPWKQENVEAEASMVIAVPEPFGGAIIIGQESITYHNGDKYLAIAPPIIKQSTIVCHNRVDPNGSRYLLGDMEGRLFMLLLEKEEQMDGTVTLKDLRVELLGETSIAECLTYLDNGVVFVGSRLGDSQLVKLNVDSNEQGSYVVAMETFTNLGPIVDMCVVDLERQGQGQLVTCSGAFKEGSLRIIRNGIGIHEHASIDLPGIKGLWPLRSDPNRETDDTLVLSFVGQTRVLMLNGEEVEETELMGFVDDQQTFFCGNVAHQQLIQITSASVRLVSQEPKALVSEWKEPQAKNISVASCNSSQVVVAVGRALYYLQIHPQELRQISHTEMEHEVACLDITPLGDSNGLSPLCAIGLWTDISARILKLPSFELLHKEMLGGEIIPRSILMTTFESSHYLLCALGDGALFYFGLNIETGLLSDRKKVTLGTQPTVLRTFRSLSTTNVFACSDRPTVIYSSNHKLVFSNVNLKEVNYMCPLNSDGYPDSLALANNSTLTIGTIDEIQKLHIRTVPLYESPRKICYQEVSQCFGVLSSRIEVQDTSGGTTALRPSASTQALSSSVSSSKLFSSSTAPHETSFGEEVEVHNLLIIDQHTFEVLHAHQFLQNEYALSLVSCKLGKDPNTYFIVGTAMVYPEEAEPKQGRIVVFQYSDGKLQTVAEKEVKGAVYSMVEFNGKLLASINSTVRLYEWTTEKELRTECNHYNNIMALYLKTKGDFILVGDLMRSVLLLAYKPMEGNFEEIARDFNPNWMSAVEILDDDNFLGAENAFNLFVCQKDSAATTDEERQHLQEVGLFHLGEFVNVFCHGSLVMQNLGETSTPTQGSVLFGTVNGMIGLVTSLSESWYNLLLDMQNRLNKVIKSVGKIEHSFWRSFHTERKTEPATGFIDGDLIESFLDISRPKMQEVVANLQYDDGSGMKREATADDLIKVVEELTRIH

Compound: COc1cc(-c2cn(C)c(=O)c(C)c2C)cc(OC)c1CN1CC[C@H](N2CCN(c3ccc(N[C@H]4CCC(=O)NC4=O)cc3F)CC2)C(F)(F)C1 [Pattern A and Pattern G]
XRPD-3 days ([1]; Acetone, a.w. 0.0): Pattern B
XRPD-7 days ([1]; Acetone, a.w. 0.0): Pattern N
XRPD-3 days [1, 4]: Pattern K
XRPD-7 days [1, 4]: Pattern K
XRPD-3 days [1, 5]: Pattern B
XRPD-7 days [1, 5]: Pattern B
XRPD-3 days [1, 6]: Pattern B
XRPD-7 days [1, 6]: Pattern N
XRPD-3 days [1, 7]: Pattern B
XRPD-7 days [1, 7]: Pattern N
XRPD-7 days ([1]; Water, a.w. 1.0): Pattern K

% GSPT1 Remaining, Mean ([2]; 0.100 nM): 106.2%
% GSPT1 Remaining, Mean ([2]; 0.316 nM): 99.3%
% GSPT1 Remaining, Mean ([2]; 1.00 nM): 96.4%
% GSPT1 Remaining, Mean ([2]; 3.15 nM): 101.9%
% GSPT1 Remaining, Mean ([2]; 10.0 nM): 107.2%
% GSPT1 Remaining, Mean ([2]; 31.5 nM): 102.5%
% GSPT1 Remaining, Mean ([2]; 100 nM): 102.6%
% GSPT1 Remaining, Mean ([2]; 317 nM): 100.9%
% GSPT1 Remaining, Mean ([2]; 1000 nM): 101.1%
% GSPT1 Remaining, Mean ([2]; 3161 nM): 103.2%
% GSPT1 Remaining, Mean ([2]; 9990 nM): 98.8%
Mean Emax (%) ± SD ([2]; GSPT1-HiBiT, HEK293T.114 cells): 92.85 ± 1.30%
DC50 ([2]; GSPT1-HiBiT, HEK293T.114 cells, read-out: Geometric Mean DC50): 1.93 nM
degradation of GSPT1 induced ([2]; positive control): > 95%
Compound: Cc1ccc(NC(=O)NCc2ccc3c(c2)CN(C2CCC(=O)NC2=O)C3=O)cc1Cl (stereo not shown) [CC-885, reference compound]

Compound: COc1cc(-c2cn(C)c(=O)c(C)c2C)cc(OC)c1CN1CC[C@H](N2CCN(c3ccc(N[C@H]4CCC(=O)NC4=O)cc3F)CC2)C(F)(F)C1 [Pattern A, Pattern C, Pattern D, and Pattern E]
XRPD-7 days ([1]; Acetone, a.w. 0.0): Pattern B
XRPD-7 days ([1]; Acetone/water (v:v = 36:64), a.w. 0.9): Pattern K
XRPD-7 days ([1]; Acetone/water (v:v = 76:24), a.w. 0.7): Pattern K
XRPD-7 days ([1]; Acetone/water (v:v = 92:8), a.w. 0.5): Pattern B
XRPD-7 days ([1]; Acetone/water (v:v = 97:30), a.w. 0.3): Pattern B
XRPD-7 days ([1]; Acetone/water (v:v = 99.5:0.5), a.w. 0.1): Pattern B
XRPD-7 days ([1]; Water, a.w. 1.0): Pattern K

Compound: COc1cc(-c2cn(C)c(=O)c(C)c2C)cc(OC)c1CN1CC[C@H](N2CCN(c3ccc(N[C@H]4CCC(=O)NC4=O)cc3F)CC2)C(F)(F)C1 [Pattern A and Pattern M]
XRPD-3 days ([1]; Acetone, a.w. 0.0): Pattern N
XRPD-7 days ([1]; Acetone, a.w. 0.0): Pattern N
XRPD-3 days [1, 4]: Pattern K
XRPD-7 days [1, 4]: Pattern A
XRPD-3 days [1, 5]: Pattern N
XRPD-7 days [1, 5]: Pattern N
XRPD-3 days [1, 6]: Pattern N
XRPD-7 days [1, 6]: Pattern N
XRPD-3 days [1, 7]: Pattern N
XRPD-7 days [1, 7]: Pattern N
XRPD-3 days ([1]; Water, a.w. 1.0): Pattern K
XRPD-7 days ([1]; Water, a.w. 1.0): Pattern A

% Remaining at 3 hours ([3]; CD-1, mouse): 107.21%
% Remaining at 3 hours ([3]; Sprague-Dawley, rat): 88.82%
% Remaining at 3 hours ([3]; beagle, dog): 111.42%
% Remaining at 3 hours ([3]; human): 91.67%
% Remaining at 3 hours ([3]; monkey): 115.61%
Compound: CC(=O)CC(c1ccccc1)c1c(O)c2ccccc2oc1=O (stereo not shown) [Warfarin, reference compound]
